Measured values taken from patent publication US12209102B2, “Heterocyclic compounds and uses thereof” (Kumquat Biosciences Inc., priority 2022, dated 2025).

Legend:
GP2D cells = test: Ras cellular assay, growth of cells with K-Ras G12D mutation (CellTiter-Glo); type: cell-based; settings: cell growth, Example 9, G12D mutation, read-out: IC50 against GP2D cells
K-Ras G12V = biological target: T1, K-Ras G12V (Homo sapiens, UniProt P01116, G12V); test: HTRF resonance energy transfer assay, K-Ras G12V / SOS1 interaction; type: biochemical; settings: HTRF assay of Example 5; read-out: IC50 against K-Ras G12V
T1 construct: made in house; host or cells: E. coli BL21 (DE3)
Procedure, shortened: (§1)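 Read-out: HTRF 665/620 nm ratio (excitation 337 nm) after roughly 10 min or longer incubation, used to derive IC50. Donor anti-GST-Eu on GST-K-Ras; acceptor anti-6His-XL665 on His-hSOS1. Duplicate dose series from 10 μM down to 0.01 μM.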

K-Ras WT = biological target: T2, K-Ras WT (Homo sapiens, UniProt P01116); test: HTRF resonance energy transfer assay, K-Ras WT / SOS1 interaction; type: biochemical; settings: HTRF assay of Example 5; read-out: IC50 against K-Ras WT
T2 construct: made in house; host or cells: E. coli BL21 (DE3)
Procedure, shortened: as §1

K-Ras G12D = biological target: T3, K-Ras G12D (Homo sapiens, UniProt P01116, G12D); test: HTRF resonance energy transfer assay, K-Ras G12D / SOS1 interaction; type: biochemical; settings: HTRF assay of Example 5; read-out: IC50 against K-Ras G12D
T3 construct: made in house; host or cells: E. coli BL21 (DE3)
Procedure, shortened: as §1

K-Ras G12S = biological target: T4, K-Ras G12S (Homo sapiens, UniProt P01116, G12S); test: HTRF resonance energy transfer assay, K-Ras G12S / SOS1 interaction; type: biochemical; settings: HTRF assay of Example 5; read-out: IC50 against K-Ras G12S
T4 construct: made in house; host or cells: E. coli BL21 (DE3)
Procedure, shortened: as §1

SW620 cells = test: Ras cellular assay, growth of cells with K-Ras G12V mutation (CellTiter-Glo); type: cell-based; settings: Homo sapiens, SW-620; cell growth, Example 9, G12V mutation; read-out: IC50 against SW620 cells
Procedure, shortened: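 SW620 (K-Ras G12V) cells, e.g. 800/well in RPMI-1640 with 10% heat-inactivated FBS on standard or ultra-low attachment plates, were dosed the day after plating with e.g. a 10-point 3-fold series. Viability by CellTiter-Glo luminescence about 6 days later; IC50 from four-parameter fit.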

A549 cells = test: Ras cellular assay, growth of cells with K-Ras G12S mutation (CellTiter-Glo); type: cell-based; settings: Homo sapiens, cell growth, Example 9, G12S mutation, read-out: IC50 against A549 cells
Procedure, shortened: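 A549 cells (K-Ras G12S) in RPMI-1640 with 10% heat-inactivated FBS, seeded e.g. 800 per well in standard or ultra-low-attachment 384-well plates, treated next day with a dilution series (e.g. 10-point, 3-fold). Viability by CellTiter-Glo luminescence about 6 days later; IC50 from four-parameter fit.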

T2 sequence (P01116 1-188 isoform P01116-2): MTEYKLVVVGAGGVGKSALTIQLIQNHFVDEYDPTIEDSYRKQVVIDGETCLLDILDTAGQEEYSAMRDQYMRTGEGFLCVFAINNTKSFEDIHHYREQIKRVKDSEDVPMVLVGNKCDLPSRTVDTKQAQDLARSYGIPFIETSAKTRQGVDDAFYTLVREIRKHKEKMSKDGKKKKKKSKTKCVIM
T1 sequence (P01116 1-188 isoform P01116-2 G12V): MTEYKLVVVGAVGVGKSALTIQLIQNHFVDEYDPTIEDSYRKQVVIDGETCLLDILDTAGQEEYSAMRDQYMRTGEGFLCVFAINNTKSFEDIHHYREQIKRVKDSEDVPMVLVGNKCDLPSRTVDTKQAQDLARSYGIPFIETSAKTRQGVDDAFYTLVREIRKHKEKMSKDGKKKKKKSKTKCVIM
T4 sequence (P01116 1-188 isoform P01116-2 G12S): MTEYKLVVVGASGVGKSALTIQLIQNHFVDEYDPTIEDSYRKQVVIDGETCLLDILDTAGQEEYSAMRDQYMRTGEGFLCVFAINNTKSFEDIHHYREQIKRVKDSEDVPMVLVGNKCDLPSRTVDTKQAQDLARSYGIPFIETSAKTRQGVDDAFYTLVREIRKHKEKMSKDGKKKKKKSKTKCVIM
T3 sequence (P01116 1-188 isoform P01116-2 G12D): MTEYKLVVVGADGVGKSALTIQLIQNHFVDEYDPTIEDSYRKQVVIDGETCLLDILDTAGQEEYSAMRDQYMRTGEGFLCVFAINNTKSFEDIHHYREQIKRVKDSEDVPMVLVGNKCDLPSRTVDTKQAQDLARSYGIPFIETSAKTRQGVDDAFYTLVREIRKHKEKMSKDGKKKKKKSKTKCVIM

SMILES | IC50 (GP2D cells) [nM] | IC50 (K-Ras G12V) [nM] | IC50 (K-Ras WT) [nM] | IC50 (K-Ras G12D) [nM] | IC50 (K-Ras G12S) [nM] | IC50 (SW620 cells) [nM] | IC50 (A549 cells) [nM]
N#Cc1c(N)sc2c(F)ccc(-c3c(Cl)c4c5c(nc(OC[C@@]67CCCN6C[C@H](F)C7)nc5c3F)N(CC3CC3C#N)[C@@H](C3(O)CC3)CO4)c12 (single isomer, unassigned) [Compound 942] | < 500 | – | – | – | – | – | –
N#Cc1c(N)sc2c(F)ccc(-c3c(Cl)c4c5c(nc(OC[C@@]67CCCN6C[C@H](F)C7)nc5c3F)N(C3CCCCC3O)CCO4)c12 (stereo partly drawn) [Compound 602, 2-amino-4-(8-chloro-10-fluoro-2-(((2R,7aS)-2-fluorotetrahydro-1H-pyrrolizin-7a(5H)-yl)methoxy)-4-(2-hydroxycyclohexyl)-5,6-dihydro-4H-[1,4]oxazepino[5,6,7-de]quinazolin-9-yl)-7-fluorobenzo[b]thiophene-3-carbonitrile] | < 500 | – | – | – | – | – | –
C[C@H]1COc2c(Cl)c(-c3ccc(F)c4sc(N)c(C#N)c34)c(F)c3nc(OC[C@@]45CCCN4C[C@H](F)C5)nc(c23)N1C1CCOC1 (stereo partly drawn) [Compound 647, 2-amino-4-((5S)-8-chloro-10-fluoro-2-(((2R,7aS)-2-fluorotetrahydro-1H-pyrrolizin-7a(5H)-yl)methoxy)-5-methyl-4-(tetrahydrofuran-3-yl)-5,6-dihydro-4H-[1,4]oxazepino[5,6,7-de]quinazolin-9-yl)-7-fluorobenzo[b]thiophene-3-carbonitrile] | < 500 | – | – | – | – | – | –
N#Cc1c(N)sc2c(F)ccc(-c3c(Cl)c4c5c(nc(OC[C@@]67CCCN6C[C@H](F)C7)nc5c3F)N(C3CCC5(C3)CN(C(=O)C3CC3)C5)CCO4)c12 (stereo partly drawn) [Compound 650, 2-amino-4-(8-chloro-4-(2-(cyclopropanecarbonyl)-2-azaspiro[3.4]octan-6-yl)-10-fluoro-2-(((2R,7aS)-2-fluorotetrahydro-1H-pyrrolizin-7a(5H)-yl)methoxy)-5,6-dihydro-4H-[1,4]oxazepino[5,6,7-de]quinazolin-9-yl)-7-fluorobenzo[b]thiophene-3-carbonitrile] | < 500 | – | – | – | – | – | –
N#Cc1c(N)sc2c(F)ccc(-c3c(Cl)c4c5c(nc(OC[C@@]67CCCN6C[C@H](F)C7)nc5c3F)N(CC(F)F)[C@@H](C3(O)CC3)CO4)c12 [Compound 707, 2-amino-4-((R)-8-chloro-4-(2,2-difluoroethyl)-10-fluoro-2-(((2R,7aS)-2-fluorotetrahydro-1H-pyrrolizin-7a(5H)-yl)methoxy)-5-(1-hydroxycyclopropyl)-5,6-dihydro-4H-[1,4]oxazepino[5,6,7-de]quinazolin-9-yl)-7-fluorobenzo[b]thiophene-3-carbonitrile] | < 500 | < 100 | < 100 | < 100 | < 100 | – | –
C[C@H]1COc2c(Cl)c(-c3ccc(F)c4sc(N)c(C#N)c34)c(F)c3nc(OC[C@@]45CCCN4C[C@H](F)C5)nc(c23)N1CC1CC1C#N (stereo partly drawn) [Compound 731, 2-amino-4-((5S)-8-chloro-4-((2-cyanocyclopropyl)methyl)-10-fluoro-2-(((2R,7aS)-2-fluorotetrahydro-1H-pyrrolizin-7a(5H)-yl)methoxy)-5-methyl-5,6-dihydro-4H-[1,4]oxazepino[5,6,7-de]quinazolin-9-yl)-7-fluorobenzo[b]thiophene-3-carbonitrile] | < 500 | – | – | – | – | – | –
N#Cc1c(N)sc2c(F)ccc(-c3c(Cl)c4c5c(nc(OC[C@@]67CCCN6C[C@H](F)C7)nc5c3F)N(C3CCOC3)[C@@H](C(F)F)CO4)c12 (stereo partly drawn) [Compound 871, 2-amino-4-((5R)-8-chloro-5-(difluoromethyl)-10-fluoro-2-(((2R,7aS)-2-fluorotetrahydro-1H-pyrrolizin-7a(5H)-yl)methoxy)-4-(tetrahydrofuran-3-yl)-5,6-dihydro-4H-[1,4]oxazepino[5,6,7-de]quinazolin-9-yl)-7-fluorobenzo[b]thiophene-3-carbonitrile] | < 500 | – | – | – | – | – | –
N#Cc1c(N)sc2c(F)ccc(-c3c(Cl)c4c5c(nc(OC[C@@]67CCCN6C[C@H](F)C7)nc5c3F)N(CC3CC3C#N)[C@@H](C(F)F)CO4)c12 (stereo partly drawn) [Compound 938, 2-amino-4-((5R)-8-chloro-4-((2-cyanocyclopropyl)methyl)-5-(difluoromethyl)-10-fluoro-2-(((2R,7aS)-2-fluorotetrahydro-1H-pyrrolizin-7a(5H)-yl)methoxy)-5,6-dihydro-4H-[1,4]oxazepino[5,6,7-de]quinazolin-9-yl)-7-fluorobenzo[b]thiophene-3-carbonitrile] | < 500 | – | – | – | – | – | –
N#Cc1c(N)sc2c(F)ccc(-c3c(Cl)c4c5c(nc(OC[C@@]67CCCN6C[C@H](F)C7)nc5c3F)N(C3CC(NC=O)C3)CCO4)c12 (stereo partly drawn) [Compound 988, N-(3-(9-(2-amino-3-cyano-7-fluorobenzo[b]thiophen-4-yl)-8-chloro-10-fluoro-2-(((2R,7aS)-2-fluorotetrahydro-1H-pyrrolizin-7a(5H)-yl)methoxy)-5,6-dihydro-4H-[1,4]oxazepino[5,6,7-de]quinazolin-4-yl)cyclobutyl)formamide] | < 500 | – | – | – | – | – | –
N#Cc1c(N)sc2c(F)ccc(-c3c(Cl)c4c5c(nc(OC[C@@]67CCCN6C[C@H](F)C7)nc5c3F)N(CC(F)F)CC(C3CC3)O4)c12 (stereo partly drawn) [Compound 1128, 2-amino-4-(8-chloro-6-cyclopropyl-4-(2,2-difluoroethyl)-10-fluoro-2-(((2R,7aS)-2-fluorotetrahydro-1H-pyrrolizin-7a(5H)-yl)methoxy)-5,6-dihydro-4H-[1,4]oxazepino[5,6,7-de]quinazolin-9-yl)-7-fluorobenzo[b]thiophene-3-carbonitrile] | – | < 100 | < 100 | < 100 | < 100 | < 5000 | < 5000
COCCN1CCCOc2c(Cl)c(-c3ccc(F)c4sc(N)c(C#N)c34)c(F)c3nc(OC[C@@]45CCCN4C[C@H](F)C5)nc1c23 [Compound 1201, 2-amino-4-(9-chloro-11-fluoro-2-(((2R,7aS)-2-fluorotetrahydro-1H-pyrrolizin-7a(5H)-yl)methoxy)-4-(2-methoxyethyl)-4,5,6,7-tetrahydro-[1,5]oxazocino[4,3,2-de]quinazolin-10-yl)-7-fluorobenzo[b]thiophene-3-carbonitrile] | – | < 100 | < 100 | < 100 | < 100 | < 5000 | < 5000
N#Cc1c(N)sc2c(F)ccc(-c3c(Cl)c4c5c(nc(OC[C@@]67CCCN6C[C@H](F)C7)nc5c3F)N(C3CCOC3)CCCO4)c12 (stereo partly drawn) [Compound 1205, 2-amino-4-(9-chloro-11-fluoro-2-(((2R,7aS)-2-fluorotetrahydro-1H-pyrrolizin-7a(5H)-yl)methoxy)-4-(tetrahydrofuran-3-yl)-4,5,6,7-tetrahydro-[1,5]oxazocino[4,3,2-de]quinazolin-10-yl)-7-fluorobenzo[b]thiophene-3-carbonitrile] | – | < 100 | < 100 | < 100 | < 100 | < 5000 | < 5000
CC1COc2c(Cl)c(-c3ccc(F)c4sc(N)c(C#N)c34)c(F)c3nc(OC[C@@]45CCCN4C[C@H](F)C5)nc(c23)N(C)[C@@H]1C (stereo partly drawn) [Compound 1206, 2-amino-4-((5R)-9-chloro-11-fluoro-2-(((2R,7aS)-2-fluorotetrahydro-1H-pyrrolizin-7a(5H)-yl)methoxy)-4,5,6-trimethyl-4,5,6,7-tetrahydro-[1,5]oxazocino[4,3,2-de]quinazolin-10-yl)-7-fluorobenzo[b]thiophene-3-carbonitrile] | – | < 100 | < 100 | < 100 | < 100 | < 5000 | < 5000
CC1CCOc2c(Cl)c(-c3ccc(F)c4sc(N)c(C#N)c34)c(F)c3nc(OC[C@@]45CCCN4C[C@H](F)C5)nc(c23)N1C1CC1 (stereo partly drawn) [Compound 1215, 2-amino-4-(9-chloro-4-cyclopropyl-11-fluoro-2-(((2R,7aS)-2-fluorotetrahydro-1H-pyrrolizin-7a(5H)-yl)methoxy)-5-methyl-4,5,6,7-tetrahydro-[1,5]oxazocino[4,3,2-de]quinazolin-10-yl)-7-fluorobenzo[b]thiophene-3-carbonitrile] | – | < 100 | < 100 | < 100 | < 100 | < 5000 | < 5000
